Experimental data reported in PubChem BioAssay AID2060893 (Molecular Pharmacology Branch, DTP, NCI, 2025).

System: K86415-001-R-J1-PDC complex spheroids, viability
Test: Anticancer human tumor K86415-001-R-J1-PDC patient-derived lung adenocarcinoma cell line growth inhibition [RAS]
Conditions: for IC50: curve of first compound; for viability, T/C: stronger effect = lower value
Procedure, shortened: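 Tumour cells grown as complex spheroids with HUVEC endothelial cells and mesenchymal stem cells, treated with RAS pathway inhibitor combinations. Each agent spans half-log steps from near clinical Cmax, or 10 microM where Cmax is unknown.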
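Further: spheroids exposed to agents for seven days before readout.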

CCN1CCN(Cc2ccc(Nc3ncc(F)c(-c4cc(F)c5nc(C)n(C(C)C)c5c4)n3)nc2)CC1 + CCn1c(-c2cccnc2C(C)OC)c2c3cc(ccc31)N1CCOC(CC(NC(=O)C(C(C)C)N(C)C(=O)C3(F)CCN(C(=O)C#CC(C)(C)N(C)C)CC3)C(=O)N3CCCC(N3)C(=O)OCC(C)(C)C2)C1
IC50 (second compound 0.000949 µM): < 3.16 nM | IC50 (second compound 0.003 µM): < 3.16 nM | IC50 (second compound 0.00949 µM): < 3.16 nM | IC50 (second compound 0.03 µM): < 3.16 nM | IC50 (second compound 0.0949 µM): < 3.16 nM | IC50 (second compound 0.3 µM): < 3.16 nM | viability, T/C (second compound 0.000949 µM, first compound 0.00316 µM): 39.1% | viability, T/C (second compound 0.000949 µM, first compound 0.01 µM): 31.2% | viability, T/C (second compound 0.000949 µM, first compound 0.0316 µM): 20% | viability, T/C (second compound 0.000949 µM, first compound 0.1 µM): 30.3% | viability, T/C (second compound 0.000949 µM, first compound 0.316 µM): 31.1% | viability, T/C (second compound 0.000949 µM, first compound 1 µM): 20.5% | viability, T/C (second compound 0.003 µM, first compound 0.00316 µM): 12.1% | viability, T/C (second compound 0.003 µM, first compound 0.01 µM): 13.1% | viability, T/C (second compound 0.003 µM, first compound 0.0316 µM): 12.2% | viability, T/C (second compound 0.003 µM, first compound 0.1 µM): 13.9% | viability, T/C (second compound 0.003 µM, first compound 0.316 µM): 16.7% | viability, T/C (second compound 0.003 µM, first compound 1 µM): 14.6% | viability, T/C (second compound 0.00949 µM, first compound 0.00316 µM): 11.7% | viability, T/C (second compound 0.00949 µM, first compound 0.01 µM): 12.4% | viability, T/C (second compound 0.00949 µM, first compound 0.0316 µM): 10.6% | viability, T/C (second compound 0.00949 µM, first compound 0.1 µM): 11.8% | viability, T/C (second compound 0.00949 µM, first compound 0.316 µM): 14.3% | viability, T/C (second compound 0.00949 µM, first compound 1 µM): 19.3% | viability, T/C (second compound 0.03 µM, first compound 0.00316 µM): 14% | viability, T/C (second compound 0.03 µM, first compound 0.01 µM): 11.8% | viability, T/C (second compound 0.03 µM, first compound 0.0316 µM): 11.1% | viability, T/C (second compound 0.03 µM, first compound 0.1 µM): 14% | viability, T/C (second compound 0.03 µM, first compound 0.316 µM): 14.5% | viability, T/C (second compound 0.03 µM, first compound 1 µM): 13.9% | viability, T/C (second compound 0.0949 µM, first compound 0.00316 µM): 12.4% | viability, T/C (second compound 0.0949 µM, first compound 0.01 µM): 14.8% | viability, T/C (second compound 0.0949 µM, first compound 0.0316 µM): 15.8% | viability, T/C (second compound 0.0949 µM, first compound 0.1 µM): 14.8% | viability, T/C (second compound 0.0949 µM, first compound 0.316 µM): 14.4% | viability, T/C (second compound 0.0949 µM, first compound 1 µM): 13.8% | viability, T/C (second compound 0.3 µM, first compound 0.00316 µM): 13.6% | viability, T/C (second compound 0.3 µM, first compound 0.01 µM): 12% | viability, T/C (second compound 0.3 µM, first compound 0.0316 µM): 11.1% | viability, T/C (second compound 0.3 µM, first compound 0.1 µM): 10.8% | viability, T/C (second compound 0.3 µM, first compound 0.316 µM): 9.64% | viability, T/C (second compound 0.3 µM, first compound 1 µM): 11.7%
